# Literature values, collected in paper PMC5082644 (Molecular Vision, 2016).
# Tested on: complement activation / C5b-9n (MAC) deposition in human fetal RPE cell cultures
# Conditions: among peptides with polar dipeptides added at the N-terminus
substance,measurement,value
Ac-RSI[CV(meW)QDWGAHRC]T-NH2 (disulfide),Efficacy in the human RPE cell-based assay,most efficacious
